Source: paper PMC7957578, “N-(1,3,4-Oxadiazol-2-yl)Benzamides as Antibacterial Agents against Neisseria gonorrhoeae” (International Journal of Molecular Sciences, 2021)
≈ marks a conversion by molar mass, not a printed value. Read-outs that look alike come from different tables or passages of the source.

Key:
[1] = system: N. gonorrhoeae strain 181; test: MIC by broth microdilution against N. gonorrhoeae strain 181; assay type: cell-based, Neisseria gonorrhoeae; settings: Neisseria gonorrhoeae; N. gonorrhoeae strain 181; read-out: MIC
Method: (§1) Briefly, bacteria were grown overnight on chocolate agar II at 37° C in the presence of 5% CO2. Afterwards, a bacterial suspension equivalent to 1.0 McFarland standard was prepared and diluted in brucella broth supplemented with yeast extract, neopeptone, hematin, pyridoxal, and NAD. Test agents were added in the first row of the 96-well plates and serially diluted along the plates. Plates were then incubated at 37° C in the presence of 5% CO2 for 24 h. […] Plates were then incubated at 37 ° C in the presence of 5% CO2 for 24 h. The MBC was categorized as the lowest concentration that reduced bacterial growth by 99.9% [45, 46, 47].

N. gonorrhoeae 165 = test: MIC/MBC against N. gonorrhoeae clinical isolate 165; assay type: cell-based; settings: Neisseria gonorrhoeae
Method: as §1

N. gonorrhoeae 194 = test: MIC/MBC against N. gonorrhoeae clinical isolate 194; assay type: cell-based; settings: Neisseria gonorrhoeae
Method: as §1

N. gonorrhoeae 197 = test: MIC/MBC against N. gonorrhoeae clinical isolate 197; assay type: cell-based; settings: Neisseria gonorrhoeae
Method: as §1

N. gonorrhoeae 200 = test: MIC/MBC against N. gonorrhoeae clinical isolate 200; assay type: cell-based; settings: Neisseria gonorrhoeae
Method: as §1

N. gonorrhoeae WHO L = test: MIC/MBC against N. gonorrhoeae WHO L reference strain; assay type: cell-based; settings: Neisseria gonorrhoeae
Method: as §1

[2] = system: panel drug-resistant pathogenic N. gonorrhoeae strains; test: MIC/MBC against a panel of drug-resistant N. gonorrhoeae strains; assay type: cell-based, Neisseria gonorrhoeae; settings: MBC the same as or one-fold higher than MIC
S. aureus ATCC 25923 = test: MIC/MBC (CLSI broth microdilution) against S. aureus ATCC 25923; assay type: cell-based; settings: Staphylococcus aureus, ATCC25923, S. aureus ATCC 25923
Method: (§2) The minimum inhibitory concentrations (MICs) of the tested compounds and control drugs, linezolid, vancomycin, and gentamicin, were determined using the broth microdilution method according to the guidelines outlined by the Clinical and Laboratory Standards Institute (CLSI) against clinically relevant bacterial (Staphylococcus aureus, MRSA, Escherichia coli, Enterococcus faecalis and Enterococcus faecium strains. S. aureus, MRSA, E. coli, Enterococcus faecalis and Enterococcus faecium were grown aerobically overnight on tryptone soy agar (TSA) plates at 37° C. Afterwards, a bacterial solution equivalent to 0.5 McFarland standard was prepared and diluted in cation-adjusted Mueller–Hinton broth (CAMHB) (for S. aureus, MRSA, and E. coli) to achieve a bacterial concentration of about 5 × 10^5 CFU/mL. Enterococcus faecalis and Enterococcus faecium 0.5 McFarland standard solution was diluted in tryptone soy broth (TSB) to achieve a bacterial concentration of about 5 × 10^5 CFU/mL. Compounds and control drugs were added in the first row of 96-well plates and serially diluted with the corresponding media containing bacteria. Plates were then incubated as previously described. […] The minimum bactericidal concentration (MBC) was tested by spotting 4 µL from wells with no growth onto TSA plates. Plates were incubated at 37 ° C for at least 18 h before recording the MBC. The MBC was categorized as the lowest concentration that reduced bacterial growth by 99.9% [45, 46, 47].

VRE. faecalisATCC 51575 = test: MIC/MBC (CLSI broth microdilution) against VRE faecalis ATCC 51575; assay type: cell-based; settings: Enterococcus, VRE faecalis ATCC 51575
Method: as §2

VRE. faecalis ATCC 51299 = test: MIC/MBC (CLSI broth microdilution) against VRE faecalis ATCC 51299; assay type: cell-based; settings: Enterococcus, VRE faecalis ATCC 51299
Method: as §2

[3] = system: L. monocytogenes ATCC 19115; test: MIC/MBC (CLSI broth microdilution) against L. monocytogenes ATCC 19115; assay type: cell-based; settings: Listeria monocytogenes, ATCC19115, L. monocytogenes ATCC 19115
[4] = system: E. coli BW25113 (wild-type strain); test: MIC/MBC (CLSI broth microdilution) against E. coli BW25113 wild type; assay type: cell-based, Escherichia coli; settings: E. coli BW25113 wild-type strain
Method: as §2

[5] = system: human colorectal cells (Caco-2); test: In vitro cytotoxicity, MTS assay; assay type: cell-based
Method: HSGN-237 and -238 were assayed for potential cytotoxicity against a human colorectal adenocarcinoma (Caco-2) cell line, as described previously. Briefly, tested compounds were incubated with caco-2 cells for 24 and 48 h. Then, the cells were incubated with MTS (3-(4,5-dimethylthiazol-2-yl)-5-(3-carboxymethoxyphenyl)-2-(4-sulfophenyl)-2H-tetrazolium) reagent for 4 h before measuring the absorbance values (OD490).
Figure 2 In vitro cytotoxicity assessment of HSGN-237 and -238 (tested in triplicate) against human colorectal cells (Caco-2) after (A) 24 h, and (B) 48 h, using the 3-(4,5-dimethylthiazol-2-yl)-5-(3-carboxymethoxyphenyl)-2-(4-sulfophenyl)-2H-tetrazolium (MTS) assay. Results are presented as percent viable cells relative to DMSO (negative control). Error bars represent standard deviation values. A two-way ANOVA, with post hoc Dunnet’s multiple comparisons test, determined the statistical difference between the values obtained for the compound and DMSO. Asterisks denote statistically significant differences between treatments of cells with either HSGN-237 or -238 as compared to DMSO-treated cells. The experiment was repeated 3 independent times.

[6] = Caco-2 bidirectional permeability assay; assay type: in vitro ADME, human; settings: human, Caco-2
From the text: (§3) Oral bioavailability is a highly important consideration when developing bioactive molecules as therapeutic agents. A critical factor of oral bioavailability is human intestinal absorption. The Caco-2 bidirectional permeability assay is the most widely used in vitro model for predicting if a bioactive molecule can have adequate systemic absorption. Thus, we selected HSGN-238 to act as a model to analyze the drug-like properties of newly synthesized N-(1,3,4-oxadiazol-2-yl)benzamides.
(§4) Assay and data analysis were performed by Eurofins Panlabs (MO, USA) according to a previously reported protocol. The apparent permeability coefficient (Papp) of the tested agents was calculated using the equation below: Papp(cm/s)=VR∗CR,end/Δt∗1/A∗(CD,mid−CR,mid), where VR is the volume of the receiver chamber. CR,end is the concentration of the test compound in the receiver chamber at the end time point, Δt is the incubation time, and A is the surface area of the cell monolayer. CD,mid is the calculated mid-point concentration of the test compound in the donor side, which is the mean value of the donor concentration at 0 minutes and the donor concentration at the end time point. CR,mid is the mid-point concentration of the test compound in the receiver side, which is one half of the receiver concentration at the end time point. Concentrations of the test compound were expressed as peak areas of the test compound.

Caco-2 bilayers = test: Caco-2 bidirectional permeability assay; assay type: in vitro ADME, human; settings: Caco-2 permeability classification
From the text: as §3, §4

Work on `O=C(Nc1nnc(-c2ccc(Cl)s2)o1)c1ccc(OC(F)(F)F)cc1` [HSGN-238, N-(5-(5-Chlorothiophen-2-yl)-1,3,4-oxadiazol-2-yl)-4-(trifluoromethoxy)benzamide] yielded an MIC [1] of 0.125 mg/L (≈ 0.321 µM), an MBC (N. gonorrhoeae 165) of 0.25 mg/L (≈ 0.641 µM) and an MIC (N. gonorrhoeae 165) of 0.125 mg/L (≈ 0.321 µM). It also gave an MBC (N. gonorrhoeae 194) of 0.125 mg/L (≈ 0.321 µM), an MIC (N. gonorrhoeae 194) of 0.125 mg/L (≈ 0.321 µM) and an MBC (N. gonorrhoeae 197) of 0.125 mg/L (≈ 0.321 µM). The MIC (N. gonorrhoeae 197) was 0.125 mg/L (≈ 0.321 µM), the MBC (N. gonorrhoeae 200) was 0.125 mg/L (≈ 0.321 µM) and the MIC (N. gonorrhoeae 200) was 0.125 mg/L (≈ 0.321 µM). For the same compound, the MBC (N. gonorrhoeae WHO L) was 0.125 mg/L (≈ 0.321 µM), the MIC (N. gonorrhoeae WHO L) was 0.06 mg/L (≈ 0.154 µM) and the “type of activity from MBC versus MIC” value [2] was “bactericidal activity”. It also gave an MBC (S. aureus ATCC 25923; read-out: MBC) greater than 64 mg/L, an MIC (S. aureus ATCC 25923; read-out: MIC) of 0.25 mg/L (≈ 0.641 µM) and an MBC (VRE. faecalisATCC 51575; read-out: MBC) of 32 mg/L (≈ 82.1 µM). The MIC (VRE. faecalisATCC 51575; read-out: MIC) was 1 mg/L (≈ 2.57 µM), the MBC (VRE. faecalis ATCC 51299; read-out: MBC) was 8 mg/L (≈ 20.5 µM) and the MIC (VRE. faecalis ATCC 51299; read-out: MIC) was 0.25 mg/L (≈ 0.641 µM). The MBC ([3]; read-out: MBC) was 32 mg/L (≈ 82.1 µM), the MIC ([3]; read-out: MIC) was 0.5 mg/L (≈ 1.28 µM) and the MIC [4] was greater than 8 mg/L. For the same compound, the MBC ([4]; Escherichia coli, read-out: MBC) was greater than 8 mg/L, the MIC ([4]; Escherichia coli, read-out: MIC) was greater than 8 mg/L and the non-toxic concentration ([5]; Caco-2 cells, 24 and 48 h, MTS assay) was “up to 16 µg/mL”. For the same compound, the “non-toxic concentration relative to MIC against N. gonorrhoeae” value ([5]; Caco-2 non-toxic concentration versus corresponding MIC) was 128 times, the Papp A→B ([6]; apical to basolateral) was 823 nm/s and the Papp B→A ([6]; basolateral to apical) was 329 nm/s. The “Notes (permeability class)” value (Caco-2 bilayers) was “High Permeability”.
